# Results: ChEMBL document CHEMBL4390652, “Design, biological evaluation and X-ray crystallography of nanomolar multifunctional ligands targeting simultaneously acetylcholinesterase and glycogen synthase kinase-3” (Eur J Med Chem, 2019)
# Assays:
# [1] = molecular target: Acetylcholinesterase (Homo sapiens, UniProt P22303); assay: Inhibition of human recombinant AChE using ATCh as substrate preincubated for 20 mins followed by substrate addition and measured for 3 mins by Ellman method
# [2] = molecular target: Tyrosine-protein kinase receptor UFO (Homo sapiens) (UniProt P30530); assay: Binding affinity to wild-type human partial length AXL (R497 to Y821 residues) expressed in bacterial expression system assessed as residual binding level at 10 uM by Kinomescan method relative to control
# [3] = tested on: Serine/threonine-protein kinase B-raf (Homo sapiens), P15056 [V600E]; assay: Binding affinity to human partial length BRAF V600E mutant (S429 to E741 residues) expressed in mammalian expression system assessed as residual binding level at 10 uM by Kinomescan method relative to control
# [4] = molecular target: CDK4/Cyclin D3 (Homo sapiens) (UniProt P11802+P30281); assay: Binding affinity to wild-type human full length CDK4/cyclinD3 (M1 to E303 residues) expressed in mammalian expression system assessed as residual binding level at 10 uM by Kinomescan method relative to control
# [5] = molecular target: Serine/threonine-protein kinase Chk1 (Homo sapiens) (UniProt O14757); assay: Binding affinity to wild-type human partial length CHEK1 (M1 to G289 residues) expressed in bacterial expression system assessed as residual binding level at 10 uM by Kinomescan method relative to control
# [6] = molecular target: Death-associated protein kinase 2 (Homo sapiens) (UniProt Q9UIK4); assay: Binding affinity to wild-type human full length DAPK2 (M1 to S370 residues) expressed in bacterial expression system assessed as residual binding level at 10 uM by Kinomescan method relative to control
# [7] = molecular target: Ephrin type-A receptor 7 (Homo sapiens) (UniProt Q15375); assay: Binding affinity to wild-type human partial length EPHA7 (Y608 to S912 residues) expressed in bacterial expression system assessed as residual binding level at 10 uM by Kinomescan method relative to control
# [8] = molecular target: Receptor tyrosine-protein kinase erbB-4 (Homo sapiens) (UniProt Q15303); assay: Binding affinity to wild-type human partial length ERBB4 (L690 to K994 residues) expressed in bacterial expression system assessed as residual binding level at 10 uM by Kinomescan method relative to control
# [9] = molecular target: Tyrosine-protein kinase Fer (Homo sapiens) (UniProt P16591); assay: Binding affinity to wild-type human partial length FER (S542 to T822 residues) expressed in bacterial expression system assessed as residual binding level at 10 uM by Kinomescan method relative to control
# [10] = molecular target: Glycogen synthase kinase-3 beta (Homo sapiens) (UniProt P49841); assay: Binding affinity to wild-type human full length GSK3B (M1 to T433 residues) expressed in mammalian expression system assessed as residual binding level at 10 uM by Kinomescan method relative to control
# [11] = molecular target: Insulin receptor-related protein (Homo sapiens) (UniProt P14616); assay: Binding affinity to wild-type human partial length INSRR (R950 to E1278 residues) expressed in bacterial expression system assessed as residual binding level at 10 uM by Kinomescan method relative to control
# [12] = molecular target: Serine/threonine-protein kinase LATS1 (Homo sapiens) (UniProt O95835); assay: Binding affinity to wild-type human partial length LATS1 (Q678 to V1130 residues) expressed in bacterial expression system assessed as residual binding level at 10 uM by Kinomescan method relative to control
# [13] = molecular target: Mitogen-activated protein kinase kinase kinase 2 (Homo sapiens) (UniProt Q9Y2U5); assay: Binding affinity to wild-type human partial length MAP3K2 (S315 to H619 residues) expressed in mammalian expression system assessed as residual binding level at 10 uM by Kinomescan method relative to control
# [14] = molecular target: Cyclin-dependent kinase 14 (Homo sapiens) (UniProt O94921); assay: Binding affinity to wild-type human full length PFTK1 (M1 to H451 residues) expressed in bacterial expression system assessed as residual binding level at 10 uM by Kinomescan method relative to control
# [15] = tested on: Phosphatidylinositol 4,5-bisphosphate 3-kinase catalytic subunit alpha isoform (Homo sapiens), P42336 [M1043I]; assay: Binding affinity to human partial length PIK3CA M1043I mutant (R108 to N1068 residues) expressed in mammalian expression system assessed as residual binding level at 10 uM by Kinomescan method relative to control
# [16] = molecular target: cAMP-dependent protein kinase catalytic subunit alpha (Homo sapiens) (UniProt P17612); assay: Binding affinity to wild-type human partial length PKAC-alpha (G10 to F351 residues) expressed in bacterial expression system assessed as residual binding level at 10 uM by Kinomescan method relative to control
# [17] = molecular target: Protein kinase C eta type (Homo sapiens) (UniProt P24723); assay: Binding affinity to wild-type human partial length PRKCH (S324 to P683 residues) expressed in bacterial expression system assessed as residual binding level at 10 uM by Kinomescan method relative to control
# [18] = molecular target: RAF proto-oncogene serine/threonine-protein kinase (Homo sapiens) (UniProt P04049); assay: Binding affinity to wild-type human partial length RAF1 (I330 to T640 residues) expressed in bacterial expression system assessed as residual binding level at 10 uM by Kinomescan method relative to control
# [19] = molecular target: Proto-oncogene tyrosine-protein kinase receptor Ret (Homo sapiens) (UniProt P07949); assay: Binding affinity to wild-type human partial length RET (E713 to D1014 residues) expressed in bacterial expression system assessed as residual binding level at 10 uM by Kinomescan method relative to control
# [20] = molecular target: Dual serine/threonine and tyrosine protein kinase (Homo sapiens) (UniProt Q6XUX3); assay: Binding affinity to wild-type human full length RIPK5 (M1 to T929 residues) expressed in mammalian expression system assessed as residual binding level at 10 uM by Kinomescan method relative to control
# [21] = molecular target: Ribosomal protein S6 kinase alpha-4 (Homo sapiens) (UniProt O75676); assay: Binding affinity to wild-type human partial length C-terminal RPS6KA4 kinase domain 2 (M375 to T705 residues) expressed in mammalian expression system assessed as residual binding level at 10 uM by Kinomescan method relative to control
# [22] = molecular target: Serine/threonine-protein kinase SBK1 (Homo sapiens) (UniProt Q52WX2); assay: Binding affinity to wild-type human partial length SBK1 (P23 to P348 residues) expressed in mammalian expression system assessed as residual binding level at 10 uM by Kinomescan method relative to control
# [23] = molecular target: SNF-related serine/threonine-protein kinase (Homo sapiens) (UniProt Q9NRH2); assay: Binding affinity to wild-type human partial length SNRK (M1 to E339 residues) expressed in mammalian expression system assessed as residual binding level at 10 uM by Kinomescan method relative to control
# [24] = molecular target: TGF-beta receptor type-1 (Homo sapiens) (UniProt P36897); assay: Binding affinity to wild-type human partial length TGFBR1 (D179 to M503 residues) expressed in bacterial expression system assessed as residual binding level at 10 uM by Kinomescan method relative to control
# Sequence of TGF-beta receptor type-1 (Homo sapiens) (P36897 whole entry, the tested form may be a part): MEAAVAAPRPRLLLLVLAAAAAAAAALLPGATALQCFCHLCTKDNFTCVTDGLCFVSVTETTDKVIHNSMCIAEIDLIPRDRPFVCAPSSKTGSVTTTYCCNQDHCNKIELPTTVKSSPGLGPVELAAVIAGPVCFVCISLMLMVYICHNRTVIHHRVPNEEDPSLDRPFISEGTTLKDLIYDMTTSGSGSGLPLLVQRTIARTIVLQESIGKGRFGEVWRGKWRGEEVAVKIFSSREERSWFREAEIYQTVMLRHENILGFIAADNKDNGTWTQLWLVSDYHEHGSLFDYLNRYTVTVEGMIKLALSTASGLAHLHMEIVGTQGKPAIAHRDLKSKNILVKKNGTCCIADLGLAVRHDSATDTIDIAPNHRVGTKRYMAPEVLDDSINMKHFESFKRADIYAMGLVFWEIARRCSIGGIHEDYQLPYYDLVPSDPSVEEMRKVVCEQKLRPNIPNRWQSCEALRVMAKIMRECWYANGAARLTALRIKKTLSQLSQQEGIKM
# Sequence of Ephrin type-A receptor 7 (Homo sapiens) (Q15375 28-998 limits assumed): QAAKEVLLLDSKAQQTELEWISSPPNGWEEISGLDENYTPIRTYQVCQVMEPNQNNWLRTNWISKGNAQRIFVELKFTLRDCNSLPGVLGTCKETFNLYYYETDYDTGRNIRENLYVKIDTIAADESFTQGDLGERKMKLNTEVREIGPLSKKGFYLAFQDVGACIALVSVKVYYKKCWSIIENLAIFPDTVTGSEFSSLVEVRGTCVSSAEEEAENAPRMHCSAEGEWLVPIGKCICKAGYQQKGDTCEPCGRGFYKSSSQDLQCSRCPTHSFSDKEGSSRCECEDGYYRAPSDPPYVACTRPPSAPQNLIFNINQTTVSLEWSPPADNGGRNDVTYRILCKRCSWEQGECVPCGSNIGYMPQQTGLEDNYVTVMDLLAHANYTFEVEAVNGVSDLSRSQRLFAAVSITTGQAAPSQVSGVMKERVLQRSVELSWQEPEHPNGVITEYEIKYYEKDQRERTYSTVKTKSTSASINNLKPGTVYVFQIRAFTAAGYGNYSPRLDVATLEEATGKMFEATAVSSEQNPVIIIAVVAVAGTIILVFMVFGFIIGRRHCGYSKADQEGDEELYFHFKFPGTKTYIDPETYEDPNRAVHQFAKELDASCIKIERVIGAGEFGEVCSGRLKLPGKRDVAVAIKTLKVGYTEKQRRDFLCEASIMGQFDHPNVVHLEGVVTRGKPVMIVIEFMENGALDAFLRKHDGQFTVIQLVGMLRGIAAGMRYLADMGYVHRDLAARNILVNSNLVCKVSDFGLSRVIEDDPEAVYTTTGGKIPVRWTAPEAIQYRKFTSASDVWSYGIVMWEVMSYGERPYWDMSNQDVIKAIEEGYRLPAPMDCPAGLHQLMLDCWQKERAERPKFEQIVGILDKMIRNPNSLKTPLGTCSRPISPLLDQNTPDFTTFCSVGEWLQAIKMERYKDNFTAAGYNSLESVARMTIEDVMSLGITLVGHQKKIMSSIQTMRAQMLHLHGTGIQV
# Sequence of Death-associated protein kinase 2 (Homo sapiens) (Q9UIK4 whole entry, looked up, the tested form may be a part): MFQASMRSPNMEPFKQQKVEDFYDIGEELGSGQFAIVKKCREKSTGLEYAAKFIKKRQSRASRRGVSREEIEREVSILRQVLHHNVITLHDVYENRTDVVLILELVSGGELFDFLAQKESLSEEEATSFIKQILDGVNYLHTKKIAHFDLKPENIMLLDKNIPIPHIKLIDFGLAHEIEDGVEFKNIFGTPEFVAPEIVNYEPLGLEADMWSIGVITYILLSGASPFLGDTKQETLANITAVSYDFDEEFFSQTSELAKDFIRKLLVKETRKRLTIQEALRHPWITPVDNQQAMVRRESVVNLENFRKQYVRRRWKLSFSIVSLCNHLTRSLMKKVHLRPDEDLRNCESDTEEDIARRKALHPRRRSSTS
# Sequence of Tyrosine-protein kinase Fer (Homo sapiens) (P16591 whole entry, looked up, the tested form may be a part): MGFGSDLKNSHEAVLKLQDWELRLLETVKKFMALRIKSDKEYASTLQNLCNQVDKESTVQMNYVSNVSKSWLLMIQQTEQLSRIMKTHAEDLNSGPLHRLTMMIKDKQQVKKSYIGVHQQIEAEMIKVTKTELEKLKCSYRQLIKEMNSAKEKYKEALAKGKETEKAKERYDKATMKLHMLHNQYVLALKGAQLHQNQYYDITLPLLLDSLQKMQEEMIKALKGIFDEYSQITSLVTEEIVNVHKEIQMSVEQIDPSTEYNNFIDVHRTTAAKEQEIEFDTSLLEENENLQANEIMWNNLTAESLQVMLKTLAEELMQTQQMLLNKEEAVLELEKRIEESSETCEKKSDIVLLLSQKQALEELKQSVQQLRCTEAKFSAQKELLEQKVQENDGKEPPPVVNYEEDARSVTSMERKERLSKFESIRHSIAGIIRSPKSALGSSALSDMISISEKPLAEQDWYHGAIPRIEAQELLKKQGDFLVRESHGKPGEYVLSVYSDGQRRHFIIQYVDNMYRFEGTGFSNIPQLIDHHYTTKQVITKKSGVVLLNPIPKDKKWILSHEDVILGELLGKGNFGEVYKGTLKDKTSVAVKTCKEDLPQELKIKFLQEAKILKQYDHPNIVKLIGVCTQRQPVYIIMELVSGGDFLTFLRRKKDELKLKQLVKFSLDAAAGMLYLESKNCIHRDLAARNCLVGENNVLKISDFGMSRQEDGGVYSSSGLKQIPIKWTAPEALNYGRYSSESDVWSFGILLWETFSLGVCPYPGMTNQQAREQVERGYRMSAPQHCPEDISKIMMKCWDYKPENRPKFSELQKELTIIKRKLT
# Sequence of Cyclin-dependent kinase 14 (Homo sapiens) (O94921 whole entry, the tested form may be a part, canonical isoform): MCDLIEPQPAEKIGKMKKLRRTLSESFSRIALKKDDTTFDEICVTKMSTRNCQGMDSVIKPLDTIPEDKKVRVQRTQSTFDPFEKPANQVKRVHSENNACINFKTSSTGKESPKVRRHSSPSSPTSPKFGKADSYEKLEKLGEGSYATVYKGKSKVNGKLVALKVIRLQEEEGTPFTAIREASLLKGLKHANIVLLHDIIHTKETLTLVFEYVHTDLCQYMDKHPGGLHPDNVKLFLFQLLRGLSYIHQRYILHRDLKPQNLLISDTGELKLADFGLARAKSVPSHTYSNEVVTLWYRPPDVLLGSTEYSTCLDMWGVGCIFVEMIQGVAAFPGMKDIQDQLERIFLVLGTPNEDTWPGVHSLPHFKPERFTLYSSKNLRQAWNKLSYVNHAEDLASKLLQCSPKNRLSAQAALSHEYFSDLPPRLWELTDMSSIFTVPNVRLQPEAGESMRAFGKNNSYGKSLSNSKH
# Sequence of Glycogen synthase kinase-3 beta (Homo sapiens) (P49841 whole entry, looked up, the tested form may be a part): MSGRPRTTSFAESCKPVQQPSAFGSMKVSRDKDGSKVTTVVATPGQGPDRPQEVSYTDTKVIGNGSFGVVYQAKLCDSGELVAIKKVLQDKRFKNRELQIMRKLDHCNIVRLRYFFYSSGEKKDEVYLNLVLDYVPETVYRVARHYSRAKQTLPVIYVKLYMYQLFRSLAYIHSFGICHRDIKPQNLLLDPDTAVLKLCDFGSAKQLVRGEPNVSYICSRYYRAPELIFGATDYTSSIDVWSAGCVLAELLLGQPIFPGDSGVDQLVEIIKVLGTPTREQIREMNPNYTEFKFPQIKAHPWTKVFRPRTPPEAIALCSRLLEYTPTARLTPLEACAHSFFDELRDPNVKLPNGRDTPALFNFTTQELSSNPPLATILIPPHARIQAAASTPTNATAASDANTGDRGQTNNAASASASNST
# Sequence of Serine/threonine-protein kinase SBK1 (Homo sapiens) (Q52WX2 whole entry, the tested form may be a part): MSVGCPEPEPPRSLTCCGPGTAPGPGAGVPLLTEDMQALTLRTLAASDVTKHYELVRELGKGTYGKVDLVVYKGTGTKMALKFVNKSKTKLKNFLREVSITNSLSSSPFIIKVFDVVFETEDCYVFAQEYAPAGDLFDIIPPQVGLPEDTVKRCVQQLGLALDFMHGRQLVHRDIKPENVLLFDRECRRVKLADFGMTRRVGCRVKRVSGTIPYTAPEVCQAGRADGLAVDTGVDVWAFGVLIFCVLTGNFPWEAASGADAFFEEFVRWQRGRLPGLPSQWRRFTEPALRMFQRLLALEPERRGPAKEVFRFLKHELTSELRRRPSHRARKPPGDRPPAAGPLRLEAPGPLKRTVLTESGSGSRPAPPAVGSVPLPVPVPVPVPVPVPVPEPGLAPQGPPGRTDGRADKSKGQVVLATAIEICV
# Sequence of Dual serine/threonine and tyrosine protein kinase (Homo sapiens) (Q6XUX3 whole entry, the tested form may be a part): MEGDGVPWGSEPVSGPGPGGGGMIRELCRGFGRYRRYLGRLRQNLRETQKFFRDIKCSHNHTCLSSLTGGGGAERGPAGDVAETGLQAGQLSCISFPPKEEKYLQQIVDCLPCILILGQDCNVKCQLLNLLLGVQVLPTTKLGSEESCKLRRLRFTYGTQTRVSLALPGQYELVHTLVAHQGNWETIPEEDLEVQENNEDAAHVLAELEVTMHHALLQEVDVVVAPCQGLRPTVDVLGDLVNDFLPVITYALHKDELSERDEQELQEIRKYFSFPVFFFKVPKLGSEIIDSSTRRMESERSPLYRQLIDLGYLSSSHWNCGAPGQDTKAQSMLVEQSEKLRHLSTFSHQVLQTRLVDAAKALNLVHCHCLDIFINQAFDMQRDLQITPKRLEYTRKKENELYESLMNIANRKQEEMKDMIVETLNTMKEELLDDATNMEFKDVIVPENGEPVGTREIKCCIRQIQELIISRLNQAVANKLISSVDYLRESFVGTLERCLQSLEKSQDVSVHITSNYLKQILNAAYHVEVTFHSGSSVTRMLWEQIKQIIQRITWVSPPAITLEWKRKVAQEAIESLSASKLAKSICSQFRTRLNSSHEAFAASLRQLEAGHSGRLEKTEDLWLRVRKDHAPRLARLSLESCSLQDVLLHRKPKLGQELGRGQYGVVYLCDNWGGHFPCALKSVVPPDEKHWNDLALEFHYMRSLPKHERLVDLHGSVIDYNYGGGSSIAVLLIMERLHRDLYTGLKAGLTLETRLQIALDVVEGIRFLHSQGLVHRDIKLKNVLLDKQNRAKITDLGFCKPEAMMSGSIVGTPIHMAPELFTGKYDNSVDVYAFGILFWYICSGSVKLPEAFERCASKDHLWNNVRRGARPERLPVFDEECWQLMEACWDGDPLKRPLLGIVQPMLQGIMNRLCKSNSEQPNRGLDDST
structure (smiles),measurement,setting,value
O=C(Nc1cc(-c2cn(CCNc3c4c(nc5ccccc35)CCCC4)nn2)ccn1)Nc1cccc2c1C1CCCCN1C2=O (racemic),IC50,[1],11.4 nM
same,Activity,[2],5.5%
same,Activity,[3],39%
same,Activity,[4],1.4%
same,Activity,[5],92%
same,Activity,[6],72%
same,Activity,[7],76%
same,Activity,[8],87%
same,Activity,[9],100%
same,Activity,[10],17%
same,Activity,[11],68%
same,Activity,[12],90%
same,Activity,[13],9.1%
same,Activity,[14],28%
same,Activity,[15],100%
same,Activity,[16],100%
same,Activity,[17],3.9%
same,Activity,[18],97%
same,Activity,[19],39%
same,Activity,[20],49%
same,Activity,[21],69%
same,Activity,[22],30%
same,Activity,[23],100%
same,Activity,[24],74%
